# Results published in patent US7105510B2, “Non-nucleoside reverse transcriptase inhibitors” (Boehringer Ingelheim (Canada) Ltd., priority 2002, dated 2006).
# What was measured:
# [1] = target: T1, HIV-1 RT WT (Human immunodeficiency virus type 1 group M subtype B, UniProt P03366); test: Reverse Transcriptase (RT) assay, wild type; type: biochemical
# T1 construct: mutations that occur in the reverse transcriptase segment of the pol gene
# From the text: (§1) Based upon testing of these compounds, as described below, it is known that they inhibit the RNA-dependent DNA polymerase activity of HIV-1 RT. Utilizing the Reverse Transcriptase (RT) Assay described below, compounds can be tested for their ability to inhibit the RNA-dependent DNA polymerase activity of HIV-1 RT. Certain specific compounds described in the Examples which appear below, were so tested. The results of this testing appear in Table 2 as IC50 (nM) and EC50 (nM).
# (§2) Reverse Transcriptase (RT) and Cell-Based Assays
# (§3) The assays are as described in WO 01/96338A1, the contents of which are hereby incorporated herein.
# [2] = target: T2, HIV-1 RT K103N/Y181C (Human immunodeficiency virus type 1 group M subtype B, UniProt P03366, K702N/Y780C); test: Reverse Transcriptase (RT) assay, double mutant K103N/Y181C; type: biochemical
# T2 construct: mutations that occur in the reverse transcriptase segment of the pol gene
# From the text: as §1, §2, §3
# [3] = test system: HIV-1 K103N/Y181C (103/181); test: Cell-based assay, 103/181 double mutant; details: Human immunodeficiency virus 1, read-out: EC50 103/181
# From the text: as §2, §3
# [4] = test system: HIV-1 WT; test: Cell-based assay, wild type; details: Human immunodeficiency virus 1
# From the text: as §2, §3
compound,measurement,setting,value
CCN1c2ncc(CCOc3cccc4c3COC(=O)N4)cc2C(=O)Nc2c(C)ccnc21 [Entry 127],IC50,[1],< 50 nM
same,IC50,[2],> 100 nM
"CCN1c2ncc(CCOc3cccc4c3C(C)(C)OC(=O)N4)cc2C(=O)N(C)c2cccnc21 [Entry 125, 5,11-Dihydro-8-{2-{(1,4-dihydro-4,4-dimethyl-2-oxo-2H-3,1-benzoxazin-5-yl)oxy}ethyl}-11-ethyl-5-methyl-6H-dipyrido[3,2-b:2′,3′-e][1,4]diazepin-6-one]",IC50,[1],50 to 100 nM
same,IC50,[2],> 100 nM
"CCN1c2ncc(CCOc3ccc4[nH]c(=O)[nH]c4c3)cc2C(=O)N(C)c2cccnc21 [Entry 122, 5,11-Dihydro-8-{2-{(2,3-dihydro-2-oxo-1H-benzimidazol-5-yl)oxy}ethyl}-11-ethyl-5-methyl-6H-dipyrido[3,2-b:2′,3′-e][1,4]diazepin-6-one]",IC50,[1],50 to 100 nM
same,IC50,[2],> 100 nM
"CCN1c2ncc(CCOc3cccc4c3C(C)C(=O)N4C)cc2C(=O)N(C)c2cccnc21 (stereo not drawn) [Entry 106, 5,11-dihydro-8-{2-{(2,3-dihydro-1,3-dimethyl-2-oxo-1H-indol-4-yl)oxy}ethyl}-11-ethyl-5-methyl-6H-dipyrido[3,2-b:2′,3′-e][1,4]diazepin-6-one]",IC50,[1],50 to 100 nM
same,IC50,[2],> 100 nM
CCN1c2ncc(CCOc3cccc4c3CN(C)C(=O)N4C)cc2C(=O)Nc2c(C)ccnc21 [Entry 115],IC50,[1],< 50 nM
same,IC50,[2],> 100 nM
CCN1c2ncc(CCOc3cccc4c3CNC(=O)N4C)cc2C(=O)N(C)c2cccnc21 [Entry 113],EC50,[3],< 10 nM
same,EC50,[4],< 10 nM
same,IC50,[1],< 50 nM
same,IC50,[2],< 50 nM
Cc1ccnc2c1NC(=O)c1cc(CCOc3cccc4c3CNC(=O)N4)cnc1N2C1CC1 [Entry 114],IC50,[1],< 50 nM
same,IC50,[2],> 100 nM
CCN1c2ncc(CCOc3ccc4c(c3)CNC(=O)N4)cc2C(=O)N(C)c2cccnc21 [Entry 121],IC50,[1],50 to 100 nM
same,IC50,[2],> 100 nM
CCN1c2ncc(CCOc3ccc4on(C)c(=O)c4c3)cc2C(=O)Nc2c(C)cc(F)nc21 [Entry 130],IC50,[1],< 50 nM
same,IC50,[2],> 100 nM
"CCN1c2ncc(CCOc3cccc4c3CN(O)C4=O)cc2C(=O)N(C)c2cccnc21 [Entry 103, 5,11-Dihydro-8-{2-{(2,3-dihydro-2-hydroxy-1-oxo-1H-isoindol-4-yl)oxy}ethyl}-11-ethyl-5-methyl-6H-dipyrido[3,2-b:2′,3′-e][1,4]diazepin-6-one]",EC50,[3],10 to 50 nM
same,EC50,[4],< 10 nM
same,IC50,[1],50 to 100 nM
same,IC50,[2],> 100 nM
CCN1c2ncc(CCOc3cccc4[nH]c(=O)n(C)c34)cc2C(=O)N(C)c2cccnc21 [Entry 132],IC50,[1],50 to 100 nM
same,IC50,[2],> 100 nM
"CCN1c2ncc(CCOc3cccc4c3CNC4=O)cc2C(=O)N(C)c2cccnc21 [Entry 101, 5,11-Dihydro-8-{2-{(2,3-dihydro-1-oxo-1H-isoindol-4-yl)oxy}ethyl}-11-ethyl-5-methyl-6H-dipyrido[3,2-b:2′,3′-e][1,4]diazepin-6-one]",EC50,[3],< 10 nM
same,EC50,[4],< 10 nM
same,IC50,[1],< 50 nM
same,IC50,[2],> 100 nM
"CCN1c2ncc(CCOc3cccc4c3CNC(=O)C4)cc2C(=O)N(C)c2cccnc21 [Entry 123, 5,11-Dihydro-11-ethyl-5-methyl-8-{2-{(1,2,3,4-tetrahydro-3-oxo-8-isoquinolinyl)oxy}ethyl}-6H-dipyrido[3,2-b:2′,3′-e][1,4]diazepin-6-one]",IC50,[1],< 50 nM
same,IC50,[2],< 50 nM
CCN1C(=O)c2cc(CCOc3cccc4c3CNC(=O)N4)cnc2N(CC)c2ncccc21 [Entry 117],IC50,[1],< 50 nM
same,IC50,[2],> 100 nM
CCN1c2ncc(CCOc3cccc4c3CNC4=O)cc2C(=O)Nc2c(C)ccnc21 [Entry 102],EC50,[3],< 10 nM
same,EC50,[4],< 10 nM
same,IC50,[1],< 50 nM
same,IC50,[2],> 100 nM
CCN1c2ncc(CCOc3cccc4c3n(C)c(=O)n4C)cc2C(=O)N(C)c2cccnc21 [Entry 131],IC50,[1],50 to 100 nM
same,IC50,[2],> 100 nM
CCN1c2ncc(CCOc3cccc4c3CCNC4=O)cc2C(=O)Nc2c(C)ccnc21 [Entry 109],IC50,[1],< 50 nM
same,IC50,[2],> 100 nM
"CCN1c2ncc(CCOc3cccc4c3CNC(=O)O4)cc2C(=O)N(C)c2cccnc21 [Entry 124, 5,11-Dihydro-8-{2-{(3,4-dihydro-2-oxo-2H-1,3-benzoxazin-5-yl)oxy}ethyl}-11-ethyl-5-methyl-6H-dipyrido[3,2-b:2′,3′-e][1,4]diazepin-6-one]",IC50,[1],< 50 nM
same,IC50,[2],< 50 nM
CCN1c2ncc(CCOc3cccc4c3CNC(=O)N4)cc2C(=O)Nc2c(C)ccnc21 [Entry 111],EC50,[3],10 to 50 nM
same,EC50,[4],< 10 nM
same,IC50,[1],< 50 nM
same,IC50,[2],> 100 nM
"CCN1c2ncc(CCOc3ccc4on(C(C)(C)C)c(=O)c4c3)cc2C(=O)Nc2c(C)cc(F)nc21 [Entry 129, 5,11-Dihydro-8-{2-{{2,3-dihydro-2-(1,1-dimethylethyl)-3-oxo-1,2-benzisoxazol-5-yl}oxy}ethyl}-2-fluoro-11-ethyl-4-methyl-6H-dipyrido[3,2-b:2′,3′-e][1,4]diazepin-6-one]",IC50,[1],50 to 100 nM
same,IC50,[2],> 100 nM
CCN1c2ncc(CCOc3cccc4c3CN(C)C(=O)N4C)cc2C(=O)N(C)c2cccnc21 [Entry 112],EC50,[3],10 to 50 nM
same,EC50,[4],< 10 nM
same,IC50,[1],< 50 nM
same,IC50,[2],> 100 nM
"CCN1c2ncc(CCOc3cccc4c3CNC(=O)N4)cc2C(=O)N(C)c2cccnc21 [Entry 110, 5,11-Dihydro-11-ethyl-5-methyl-8-{2-{(1,2,3,4-tetrahydro-2-oxo-5-quinazolinyl)oxy}ethyl}-6H-dipyrido[3,2-b:2′,3′-e][1,4]diazepin-6-one]",EC50,[3],< 10 nM
same,EC50,[4],< 10 nM
same,IC50,[1],< 50 nM
same,IC50,[2],> 100 nM
"CCN1c2ncc(CCOc3cccc4c3COC(=O)N4CC(=O)O)cc2C(=O)N(C)c2cccnc21 [Entry 128, 5-[2-(6,11-dihydro-11-ethyl-5-methyl-6-oxo-5H-dipyrido[3,2-b:2′,3′-e][1,4]diazepin-8-yl)ethoxy]-2-oxo-2H-3,1-benzoxazine-1(4H)-acetic acid]",IC50,[1],50 to 100 nM
same,IC50,[2],> 100 nM
"CCN1c2ncc(CCOc3cccc4c3CN(Cc3ccncc3)C4=O)cc2C(=O)N(C)c2cccnc21 [Entry 104, 5,11-dihydro-8-{2-{{2,3-dihydro-1-oxo-2-(4-pyridinylmethyl)-1H-isoindol-4-yl}oxy}ethyl}-11-ethyl-5-methyl-6H-dipyrido[3,2-b:2′,3′-e][1,4]diazepin-6-one]",IC50,[1],< 50 nM
same,IC50,[2],50 to 100 nM
CCN1c2ncc(CCOc3ccc4c(c3)CNC(=O)N4C)cc2C(=O)N(C)c2cccnc21 [Entry 119],IC50,[1],< 50 nM
same,IC50,[2],> 100 nM
CCN1c2ncc(CCOc3ccc4c(c3)CN(C)C(=O)N4C)cc2C(=O)N(C)c2cccnc21 [Entry 120],IC50,[1],< 50 nM
same,IC50,[2],> 100 nM
CCN1c2ncc(CCOc3ccc4c(c3)COC(=O)N4)cc2C(=O)N(C)c2cccnc21 [Entry 133],IC50,[1],< 50 nM
same,IC50,[2],> 100 nM
CCN1c2ncc(CCOc3cccc4c3CCNC4=O)cc2C(=O)N(C)c2cccnc21 [Entry 108],IC50,[1],< 50 nM
same,IC50,[2],50 to 100 nM
"CCN1c2ncc(CCOc3cccc4c3CC(=O)N4)cc2C(=O)N(C)c2cccnc21 [Entry 105, 5,11-Dihydro-8-{2-{(2,3-dihydro-2-oxo-1H-indol-4-yl)oxy}ethyl}-11-ethyl-5-methyl-6H-dipyrido[3,2-b:2′,3′-e][1,4]diazepin-6-one]",IC50,[1],50 to 100 nM
same,IC50,[2],> 100 nM
CCN1c2ncc(CCOc3cccc4c3CNC(=O)N4C)cc2C(=O)Nc2c(C)ccnc21 [Entry 116],IC50,[1],< 50 nM
same,IC50,[2],> 100 nM
CCN1c2ncc(CCOc3cccc4c3CNC(=O)N4CC(=O)O)cc2C(=O)N(C)c2cccnc21 [Entry 118],EC50,[3],> 50 nM
same,EC50,[4],> 50 nM
same,IC50,[1],< 50 nM
same,IC50,[2],> 100 nM
"CCN1c2ncc(CCOc3cccc4c3COC(=O)N4)cc2C(=O)N(C)c2cccnc21 [Entry 126, 5,11-Dihydro-8-{2-{(1,4-dihydro-2-oxo-2H-3,1-benzoxazin-5-yl)oxy}ethyl}-11-ethyl-5-methyl-6H-dipyrido[3,2-b:2′,3′-e][1,4]diazepin-6-one]",IC50,[1],< 50 nM
same,IC50,[2],> 100 nM
"CCN1c2ncc(CCOc3cccc4c3CC(=O)N4C)cc2C(=O)N(C)c2cccnc21 [Entry 107, 5,11-dihydro-8-{2-{(2,3-dihydro-1-methyl-2-oxo-1H-indol-4-yl)oxy}ethyl}-11-ethyl-5-methyl-6H-dipyrido[3,2-b:2′,3′-e][1,4]diazepin-6-one]",IC50,[1],50 to 100 nM
